# Data taken from US7297790B2, “Anhydrous mirtazapine crystals and process for preparing the same” (Sumitomo Chemical Company, Limited, priority 1999, dated 2007).
# Test: Hygroscopic degree of crystals stored at constant temperature and humidity (petri dish, weight gain)
# Format: physicochemical
# Conditions: 75% relative humidity, chamber temperature 25° C., after 500 hours; compared with Comparative Example 3
# Experimental: Next, the mirtazapine crystals obtained in Example 7 and Comparative Example 3 were placed on a petri dish, and the petri dish was placed in a constant temperature and humidity of 75% relative humidity and a chamber temperature of 25° C., and the change in the hygroscopic degree of the crystals was evaluated. Incidentally, the hygroscopic degree is calculated by the following equation: [Hygroscopic Degree (% by weight)]=[(Weight (g) of Crystals After Treatment)−(Weight (g) of Crystals Before Treatment)]÷[Weight (g) of Crystals Before Treatment]×100
compound,measurement,value
"CN1CCN2c3ncccc3Cc3ccccc3C2C1 (stereo not shown) [Example 7, anhydrous mirtazapine]","hygroscopic degree with the passage of time (FIG. 2), in words",very low
